pIC50: −log10 of the molar value.
Assays:
MAPK14 (human) = MAPK14 (human) (UniProt Q16539); test: Cell-Based Assay; settings: monocyte
MAPK14 [1] = target: MAPK14 (UniProt Q16539); test: Enzyme Assay
MAPK14 [2] = target: MAPK14 (UniProt Q16539); test: Enzyme Assay; remark: listed apart in the source

Chain of MAPK14 (Q16539 whole entry, looked up): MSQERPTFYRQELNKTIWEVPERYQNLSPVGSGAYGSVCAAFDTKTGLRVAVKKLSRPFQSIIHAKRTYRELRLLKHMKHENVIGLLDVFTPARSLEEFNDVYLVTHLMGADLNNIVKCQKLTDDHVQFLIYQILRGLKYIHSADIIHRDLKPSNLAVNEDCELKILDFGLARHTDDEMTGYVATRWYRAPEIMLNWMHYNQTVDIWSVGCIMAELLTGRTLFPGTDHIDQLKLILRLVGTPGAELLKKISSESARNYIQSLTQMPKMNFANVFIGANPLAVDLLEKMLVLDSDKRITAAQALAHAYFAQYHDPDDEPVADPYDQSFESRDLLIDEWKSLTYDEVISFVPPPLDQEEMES
Chain of MAPK14 (human) (Q16539 whole entry, looked up): as above

| SMILES | pIC50 (MAPK14 (human)) | pIC50 (MAPK14 [1]) | pIC50 (MAPK14 [2]) |
| --- | --- | --- | --- |
| CSc1ccc(-c2nc3n(c2-c2ccncc2)CCC3)cc1 | 5.57 | 5.47 |  |
| Brc1ccc(-c2nc3n(c2-c2ccncc2)CCC3)cc1 | 6.15 | 5.49 |  |
| C[S+]([O-])c1ccc(-n2cnc(-c3ccc(F)cc3)c2-c2ccncc2)cc1 (configuration not stated) | 5.64 |  |  |
| CS(=O)(=O)c1ccc(-c2nc3n(c2-c2ccncc2)CCC3)cc1 | < 5.00 | < 5.00 |  |
| Fc1ccc(-c2ncn(CCCNCc3ccccc3)c2-c2ccncc2)cc1 | 6.23 |  |  |
| CC(=O)OCCn1cnc(-c2ccc(F)cc2)c1-c1ccncc1 |  | 7.30 |  |
| Clc1ccccc1-c1nc2n(c1-c1ccncc1)CCC2 |  | 6.60 |  |
| C[S+]([O-])c1cccc(-c2ncn(CCCN3CCOCC3)c2-c2ccncc2)c1 (configuration not stated) | < 5.30 |  |  |
| Clc1cccc(-c2nc3n(c2-c2ccncc2)CCC3)c1 | 7.30 | 7.40 |  |
| C[S+]([O-])c1ccc(-c2nc(-c3cccs3)c(-c3ccncc3)[nH]2)cc1 (configuration not stated) |  | 6.34 |  |
| CC(C)(C)C1=CC(O)(C(C)(C)C)CC(c2nc(-c3ccc(F)cc3)c(-c3ccncc3)[nH]2)=C1 (configuration not stated) | < 5.30 | < 4.52 | < 5.60 |
| CCSc1ccc(-c2nc3n(c2-c2ccncc2)CCC3)cc1 | < 4.70 | 5.25 |  |
| Fc1ccc(-c2ncn(CCCN3CCOCC3)c2-c2cccnc2)cc1 |  | < 5.00 |  |
| O=[N+]([O-])c1ccc(-c2nc(-c3ccc(F)cc3)c(-c3ccccc3)[nH]2)cc1 | < 5.30 | < 5.00 | < 5.60 |
| Fc1ccc(-c2c(-c3ccncc3)nc3n2CCC3)cc1 |  | < 5.00 |  |
| Fc1ccc(-c2ncn(C3CCN(Cc4ccccc4)CC3)c2-c2ccncc2)cc1 |  | 6.36 |  |
| Cc1cc(-c2c(-c3ccc(F)cc3)ncn2CCCN2CCOCC2)ccn1 |  | 5.52 |  |
| CCc1nc[nH]c1-c1ccncc1 | < 5.30 | < 4.52 | < 5.60 |
| Clc1nc2n(c1-c1ccncc1)CCC2 |  | < 4.30 |  |
| CSc1cccc(-c2ncn(CCCN3CCOCC3)c2-c2ccncc2)c1 | 6.00 |  |  |
| Cc1cc(-c2[nH]c(-c3ccc([S+](C)[O-])cc3)nc2-c2ccc(F)cc2)ccn1 (configuration not stated) | 6.37 |  |  |
| COc1ccc(-c2nc3n(c2-c2ccncc2)CCC3)cc1 | 5.38 | 5.44 |  |
| Fc1ccc(-c2ncn(CCCN3CCOCC3)c2-c2ccccn2)cc1 |  | < 5.00 |  |
| Clc1ccc(-c2nc3n(c2-c2ccncc2)CCC3)cc1 |  | 7.30 |  |
| O=C1CN(c2ccc(-c3nc(-c4ccc(F)cc4)c(-c4ccncc4)[nH]3)cc2)NO1 |  | 7.52 |  |
| Fc1ccc(-c2nc3n(c2-c2ccncc2)CCC3)cc1 | 6.77 | 7.18 |  |
| C[S+]([O-])c1ccc(-c2nc3n(c2-c2ccncc2)CCC3)cc1 (configuration not stated) | < 5.00 | < 5.00 |  |
| CC(=O)OCCc1nc(-c2ccncc2)c(-c2ccc(F)cc2)[nH]1 |  | < 5.00 |  |

Reference: the Kinase Knowledgebase extract (Sharma et al. 2016)
